In this assay the target is JAK1 (Homo sapiens (Human), UniProt P23458). Briefly: Analysis of JAK1 activity inhibition ability (ADP-Glo Kinase Assay). It is filed as biochemical. Particulars: JAK1 enzyme, ADP-Glo luminescence, ATP 250 uM, IRS-itide substrate, 30° C. 40 minutes; read-out: IC50. The gist of the method:
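JAK1 enzyme, IRS-itide substrate (40 ng/mL) and 250 uM ATP, both as prepared in kinase buffer (Tris-HCl pH 7.5, MgCl2, BSA, DTT), reacted with compound 40 min at 30 °C. ADP formed was detected by ADP-Glo luminescence; IC50 is the concentration giving 50% inhibition versus control.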
A general note: ADP-Glo turns the ADP formed in a reaction into a luminescent signal.

Each structure is given as a SMILES string.

Chain of JAK1 (P23458 whole entry): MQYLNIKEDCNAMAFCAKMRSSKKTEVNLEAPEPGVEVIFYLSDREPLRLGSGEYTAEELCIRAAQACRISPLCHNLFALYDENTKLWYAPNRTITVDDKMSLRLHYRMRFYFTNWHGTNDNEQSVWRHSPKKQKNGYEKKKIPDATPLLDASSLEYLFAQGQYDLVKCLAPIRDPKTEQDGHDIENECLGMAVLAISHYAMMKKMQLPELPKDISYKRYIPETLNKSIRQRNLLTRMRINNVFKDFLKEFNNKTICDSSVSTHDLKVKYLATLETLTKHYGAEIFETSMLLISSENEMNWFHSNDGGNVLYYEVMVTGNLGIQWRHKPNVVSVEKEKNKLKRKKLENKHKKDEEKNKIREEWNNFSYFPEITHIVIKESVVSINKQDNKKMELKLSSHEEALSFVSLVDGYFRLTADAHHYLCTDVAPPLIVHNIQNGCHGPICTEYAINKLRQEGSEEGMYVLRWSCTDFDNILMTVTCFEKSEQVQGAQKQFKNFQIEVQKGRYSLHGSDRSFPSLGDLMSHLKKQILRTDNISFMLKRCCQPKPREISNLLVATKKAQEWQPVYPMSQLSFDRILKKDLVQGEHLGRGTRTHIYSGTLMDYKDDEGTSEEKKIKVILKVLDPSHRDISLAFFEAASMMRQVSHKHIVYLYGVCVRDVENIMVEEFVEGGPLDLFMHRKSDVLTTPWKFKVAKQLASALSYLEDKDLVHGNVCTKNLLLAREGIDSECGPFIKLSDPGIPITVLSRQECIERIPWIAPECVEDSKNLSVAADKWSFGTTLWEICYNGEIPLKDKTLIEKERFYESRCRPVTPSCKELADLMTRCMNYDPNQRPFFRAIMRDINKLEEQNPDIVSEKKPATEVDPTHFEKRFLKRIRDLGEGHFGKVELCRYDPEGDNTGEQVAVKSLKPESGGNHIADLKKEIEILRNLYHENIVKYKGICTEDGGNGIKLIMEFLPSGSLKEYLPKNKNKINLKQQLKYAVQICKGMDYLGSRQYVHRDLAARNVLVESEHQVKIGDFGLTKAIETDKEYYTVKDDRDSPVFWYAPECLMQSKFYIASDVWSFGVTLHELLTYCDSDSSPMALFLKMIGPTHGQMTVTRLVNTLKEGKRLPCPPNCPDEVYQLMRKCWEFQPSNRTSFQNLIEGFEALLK

The term IC50 denotes the concentration at which inhibition is half-maximal. Regarding `O=C(Nc1cc(C2=CC3CCC(C2)N3S(=O)(=O)CCCF)c2cc[nH]c2n1)C1CC1` (centres unmarked) [Example 175, N-(4-(8-((3-fluoropropyl)sulfonyl)-8-azabicyclo[3.2.1]oct-2-en-3-yl)-1H-pyrrolo[2,3-b]pyridin-6-yl)cyclopropanecarboxamide], the IC50 lay in the range of 20 to 200 nM.

As to `CCCS(=O)(=O)N1C2C=C(c3cc(NC(=O)C4CC4)nc4[nH]ccc34)CC1CC2` (centres unmarked) [Example 176, N-(4-(8-(propylsulfonyl)-8-azabicyclo[3.2.1]oct-2-en-3-yl)-1H-pyrrolo[2,3-b]pyridin-6-yl)cyclopropanecarboxamide], the IC50 was in the range of 20 to 200 nM.

As for `O=C(Nc1cc(C2=CC3CCC(C2)N3S(=O)(=O)C2CC2)c2cc[nH]c2n1)C1CC1` (centres unmarked) [Example 177, N-(4-(8-(cyclopropylsulfonyl)-8-azabicyclo[3.2.1]oct-2-en-3-yl)-1H-pyrrolo[2,3-b]pyridin-6-yl)cyclopropanecarboxamide], the IC50 fell in the range of 20 to 200 nM.

In the case of `O=C(Nc1cc(C2=CC3CCC(C2)N3S(=O)(=O)c2ccc(F)c(F)c2)c2cc[nH]c2n1)C1CC1` (centres unmarked) [Example 178, N-(4-(8-((3,4-difluorophenyl)sulfonyl)-8-azabicyclo[3.2.1]oct-2-en-3-yl)-1H-pyrrolo[2,3-b]pyridin-6-yl)cyclopropanecarboxamide], the IC50 was 20 to 200 nM.

As to `CCS(=O)(=O)N1CC=C(c2cc(NC(=O)C3CC3)nc3[nH]ccc23)C(C)(C)C1` [Example 179, N-(4-(1-(ethylsulfonyl)-3,3-dimethyl-1,2,3,6-tetrahydropyridin-4-yl)-1H-pyrrolo[2,3-b]pyridin-6-yl)cyclopropanecarboxamide], the concentration for half-maximal inhibition (IC50) was over 200 nM.

Turning to `CC1(C)CN(S(=O)(=O)CCCC#N)CC=C1c1cc(NC(=O)C2CC2)nc2[nH]ccc12` [Example 180, N-(4-(1-((3-cyanopropyl)sulfonyl)-3,3-dimethyl-1,2,3,6-tetrahydropyridin-4-yl)-1H-pyrrolo[2,3-b]pyridin-6-yl)cyclopropanecarboxamide], the IC50 fell in the range of 20 to 200 nM.

As to `O=C(Nc1nc(-c2ccc(NS(=O)(=O)c3ccc(F)c(F)c3)cc2)c2cc[nH]c2n1)C1CC1` [Example 181, N-(4-(4-((3,4-difluorophenyl)sulfonamido)phenyl)-7H-pyrrolo[2,3-d]pyrimidin-2-yl)cyclopropanecarboxamide], the IC50 was under 20 nM.

Turning to `CCS(=O)(=O)Nc1ccc(-c2nc(NC(=O)C3CC3)nc3[nH]ccc23)cc1` [Example 182, N-(4-(4-(ethylsulfonamido)phenyl)-7H-pyrrolo[2,3-d]pyrimidin-2-yl)cyclopropanecarboxamide], the 50% inhibitory concentration (IC50) was in the range of 20 to 200 nM.

For the compound `O=C(Nc1nc(-c2ccc(NS(=O)(=O)C3CCCCC3)cc2)c2cc[nH]c2n1)C1CC1` [Example 183, N-(4-(4-(cyclohexanesulfonamido)phenyl)-7H-pyrrolo[2,3-d]pyrimidin-2-yl)cyclopropanecarboxamide], the 50% inhibitory concentration (IC50) was under 20 nM.

Regarding `O=C(Nc1nc(-c2ccc(NS(=O)(=O)CCCC(F)(F)F)cc2)c2cc[nH]c2n1)C1CC1` [Example 184, N-(4-(4-((4,4,4-trifluorobutyl)sulfonamido)phenyl)-7H-pyrrolo[2,3-d]pyrimidin-2-yl)cyclopropanecarboxamide], the half-maximal inhibitory concentration (IC50) was in the range of 20 to 200 nM.

On to `O=C(Nc1nc(-c2ccc(NS(=O)(=O)CCCF)cc2)c2cc[nH]c2n1)C1CC1` [Example 185, N-(4-(4-((3-fluoropropyl)sulfonamido)phenyl)-7H-pyrrolo[2,3-d]pyrimidin-2-yl)cyclopropanecarboxamide], for which the IC50 was under 20 nM.

Take `N#CCCCS(=O)(=O)Nc1ccc(-c2nc(NC(=O)C3CC3)nc3[nH]ccc23)cc1` [Example 186, N-(4-(4-((3-cyanopropyl)sulfonamido)phenyl)-7H-pyrrolo[2,3-d]pyrimidin-2-yl)cyclopropanecarboxamide]: the IC50 was in the range of 20 to 200 nM.

As to `O=C(Nc1nc(-c2ccc(NS(=O)(=O)c3ccc(Cl)cc3)cc2)c2cc[nH]c2n1)C1CC1` [Example 187, N-(4-(4-((4-chlorophenyl)sulfonamido)phenyl)-7H-pyrrolo[2,3-d]pyrimidin-2-yl)cyclopropanecarboxamide], the half-inhibitory concentration (IC50) lay in the range of 20 to 200 nM.

For `O=C(Nc1nc(-c2ccc(NS(=O)(=O)c3ccc(F)cc3)cc2)c2cc[nH]c2n1)C1CC1` [Example 188, N-(4-(4-((4-fluorophenyl)sulfonamido)phenyl)-7H-pyrrolo[2,3-d]pyrimidin-2-yl)cyclopropanecarboxamide], the IC50 was under 20 nM.

For the compound `O=C(Nc1nc(-c2ccc(NS(=O)(=O)c3ccc(Br)cc3)cc2)c2cc[nH]c2n1)C1CC1` [Example 189, N-(4-(4-((4-bromophenyl)sulfonamido)phenyl)-7H-pyrrolo[2,3-d]pyrimidin-2-yl)cyclopropanecarboxamide], the IC50 lay in the range of 20 to 200 nM.

As to `CCCS(=O)(=O)Nc1ccc(-c2nc(NC(=O)C3CC3)nc3[nH]ccc23)cc1` [Example 190, N-(4-(4-(propylsulfonamido)phenyl)-7H-pyrrolo[2,3-d]pyrimidin-2-yl)cyclopropanecarboxamide], the IC50 is under 20 nM.

With `CCCCS(=O)(=O)Nc1ccc(-c2nc(NC(=O)C3CC3)nc3[nH]ccc23)cc1` [Example 191, N-(4-(4-(butylsulfonamido)phenyl)-7H-pyrrolo[2,3-d]pyrimidin-2-yl)cyclopropanecarboxamide], the IC50 is under 20 nM.

For the compound `O=C(Nc1nc(-c2ccc(NS(=O)(=O)c3cccc(F)c3)cc2)c2cc[nH]c2n1)C1CC1` [Example 192, N-(4-(4-((3-fluorophenyl)sulfonamido)phenyl)-7H-pyrrolo[2,3-d]pyrimidin-2-yl)cyclopropanecarboxamide], the IC50 was under 20 nM.

Turning to `CN(c1ccc(-c2nc(NC(=O)C3CC3)nc3[nH]ccc23)cc1)S(=O)(=O)c1ccc(F)c(F)c1` [Example 193, N-(4-(4-((3,4-difluoro-N-methylphenyl)sulfonamido)phenyl)-7H-pyrrolo[2,3-d]pyrimidin-2-yl)cyclopropanecarboxamide], the IC50 was over 200 nM.

On to `O=C(Nc1nc(-c2ccc(NS(=O)(=O)CCC(F)(F)F)cc2)c2cc[nH]c2n1)C1CC1` [Example 194, N-(4-(4-((3,3,3-trifluoropropyl)sulfonamido)phenyl)-7H-pyrrolo[2,3-d]pyrimidin-2-yl)cyclopropanecarboxamide], for which the half-maximal inhibitory concentration (IC50) is under 20 nM.

As for `O=C(Nc1nc(-c2ccc(NS(=O)(=O)C3CCS(=O)(=O)CC3)cc2)c2cc[nH]c2n1)C1CC1` [Example 195, N-(4-(4-((1,1-dioxidotetrahydro-2H-thiopyran)-4-sulfonamido)phenyl)-7H-pyrrolo[2,3-d]pyrimidin-2-yl)cyclopropanecarboxamide], the IC50 lay within 20 to 200 nM.

Consider `O=C(Nc1nc(-c2ccc(NS(=O)(=O)C3CCS(=O)(=O)C3)cc2)c2cc[nH]c2n1)C1CC1` (centres unmarked) [Example 196, N-(4-(4-((1,1-dioxidotetrahydrothiophene)-3-sulfonamido)phenyl)-7H-pyrrolo[2,3-d]pyrimidin-2-yl)cyclopropanecarboxamide], for which the half-inhibitory concentration (IC50) was 20 to 200 nM.

`N#Cc1ccc(S(=O)(=O)Nc2ccc(-c3nc(NC(=O)C4CC4)nc4[nH]ccc34)cc2)cn1` [Example 197, N-(4-(4-((6-cyanopyridine)-3-sulfonamido)phenyl)-7H-pyrrolo[2,3-d]pyrimidin-2-yl)cyclopropanecarboxamide]: the 50% inhibitory concentration (IC50) was over 200 nM.

Turning to `Cn1cncc1S(=O)(=O)Nc1ccc(-c2nc(NC(=O)C3CC3)nc3[nH]ccc23)cc1` [Example 198, N-(4-(4-((1-methyl-1H-imidazole)-5-sulfonamido)phenyl)-7H-pyrrolo[2,3-d]pyrimidin-2-yl)cyclopropanecarboxamide], the 50% inhibitory concentration (IC50) is over 200 nM.

Take `Cn1cc(S(=O)(=O)Nc2ccc(-c3nc(NC(=O)C4CC4)nc4[nH]ccc34)cc2)cn1` [Example 199, N-(4-(4-((1-methyl-1H-pyrazole)-4-sulfonamido)phenyl)-7H-pyrrolo[2,3-d]pyrimidin-2-yl)cyclopropanecarboxamide]: the IC50 is over 200 nM.

For the compound `NC(=O)c1ccc(S(=O)(=O)Nc2ccc(-c3nc(NC(=O)C4CC4)nc4[nH]ccc34)cc2)cc1` [Example 200, 4-(N-(4-(2-(cyclopropanecarboxamido)-7H-pyrrolo[2,3-d]pyrimidin-4-yl)phenyl)sulfamoyl)benzamide], the IC50 was over 200 nM.

Regarding `CS(=O)(=O)Nc1ccc(-c2nc(NC(=O)C3CC3)nc3[nH]ccc23)cc1F` [Example 201, N-(4-(3-fluoro-4-(methylsulfonamido)phenyl)-7H-pyrrolo[2,3-d]pyrimidin-2-yl)cyclopropanecarboxamide], the IC50 is over 200 nM.

Consider `CCS(=O)(=O)Nc1ccc(-c2nc(NC(=O)C3CC3)nc3[nH]ccc23)cc1F` [Example 202, N-(4-(4-(ethylsulfonamido)-3-fluorophenyl)-7H-pyrrolo[2,3-d]pyrimidin-2-yl)cyclopropanecarboxamide], for which the IC50 was in the range of 20 to 200 nM.

Take `O=C(Nc1nc(-c2ccc(NS(=O)(=O)CCCF)c(F)c2)c2cc[nH]c2n1)C1CC1` [Example 203, N-(4-(3-fluoro-4-((3-fluoropropyl)sulfonamido)phenyl)-7H-pyrrolo[2,3-d]pyrimidin-2-yl)cyclopropanecarboxamide]: the half-inhibitory concentration (IC50) is under 20 nM.

With `N#CCCCS(=O)(=O)Nc1ccc(-c2nc(NC(=O)C3CC3)nc3[nH]ccc23)cc1F` [Example 204, N-(4-(4-((3-cyanopropyl)sulfonamido)-3-fluorophenyl)-7H-pyrrolo[2,3-d]pyrimidin-2-yl)cyclopropanecarboxamide], the 50% inhibitory concentration (IC50) was in the range of 20 to 200 nM.

Turning to `O=C(Nc1nc(-c2ccc(NS(=O)(=O)c3ccc(F)c(F)c3)c(F)c2)c2cc[nH]c2n1)C1CC1` [Example 205, N-(4-(4-((3,4-difluorophenyl)sulfonamido)-3-fluorophenyl)-7H-pyrrolo[2,3-d]pyrimidin-2-yl)cyclopropanecarboxamide], the IC50 was 20 to 200 nM.

In the case of `CCCS(=O)(=O)Nc1ccc(-c2nc(NC(=O)C3CC3)nc3[nH]ccc23)cc1F` [Example 206, N-(4-(3-fluoro-4-(propylsulfonamido)phenyl)-7H-pyrrolo[2,3-d]pyrimidin-2-yl)cyclopropanecarboxamide], the IC50 fell in the range of 20 to 200 nM.

The values above are taken from US11524968B2, “Heterocyclic compound as a protein kinase inhibitor” (HK inno.N Corporation, priority 2017, dated 2022).
